US6156700A, “3-(1,2-Benzisothiazol- and isoxazol-5-yl)-2,4(1H,3H)-pyrimidinedione or thione and 3-(1,2-benzisothiazol- and isoxazol-5-yl)-4(3H)-pyrimidinone or thione herbicidal agents” (American Cyanmid Company, priority 1998, dated 2000)

Legend:
CYPIR Rice Flatsedge = assay: Postemergence weed control, flooded paddy (Table IV); assay type: in vivo, Cyperus iria; design: scale not given here
In short: (§1)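 Containers holding 3 to 5 cm weeds and rice at the 1.5 to 2.5 leaf stage are flooded and kept 1.5 to 3 cm deep. Test material is applied directly into the water at about 0.0313 to 0.500 kg/ha, then plants are held in the greenhouse for three to four weeks before rating.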

[1] = test system: Velvetleaf, Abutilon theophrasti; assay: Postemergence herbicidal evaluation, ABUTH; assay type: in vivo, Medic.
In short: (§2)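 Greenhouse postemergence test. Seedlings about two weeks old sprayed (40 psi) with compound in 50/50 acetone/water, 0.5% TWEEN 20, at rates near 0.0157–0.500 kg/ha; rated 0–9 by eye at 4–5 weeks.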

[2] = test system: Foxtail, Green, Setaria viridis; assay: Postemergence herbicidal evaluation, SETVI; assay type: in vivo, (L.) Beau
In short: as §2

ORYSAT Rice, Tebonnet [3] = assay: Tolerance of transplanted rice to post-transplant application (Table III); assay type: in vivo, Oryza sativa; design: scale not given here; conditions: crop tolerance
Protocol: The tolerance of transplanted rice to post-transplanted herbicide applications is determined as follows: two ten-day-old rice seedlings (cv. Tebonnet) are transplanted into silt loam soil in 32 oz. plastic containers with a diameter of 10.5 cm and no drainage holes. After transplanting, the containers are flooded and the water level is maintained at 1.5 to 3 cm above the soil surface. Three days after transplanting, the flooded soil surface of the containers is treated with the selected aqueous/acetone 50/50 v/v mixture containing the test compounds to provide the equivalent of about 0.0313 to 0.500 kg/ha of active ingredient. The treated containers are placed on greenhouse benches, watered such that the water level is maintained as stated above, and cared for in accordance with conventional greenhouse procedures. Three to four weeks after treatment, the test is terminated and each container is examined and herbicidal effect rated according to the rating system provided in Example 185. The compounds evaluated are reported by compound number given in Example 185.

CYPSE Flatsedge [4] = assay: Preemergence weed control, flooded paddy (Table III); assay type: in vivo, Cyperus serotinus; design: scale not given here
Protocol: (§3) Preemergence herbicidal activity under flooded paddy conditions is determined as follows: plant seeds or propagating organs are planted in the top 0.5 cm of silt loam soil in 32 oz. plastic containers with a diameter of 10.5 cm and no drainage holes. Water is added to these containers and maintained at 1.5 to 3 cm above the soil surface for the duration of the experiment. The test compounds are applied as aqueous/acetone mixtures 50/50 v/v pipetted directly into the flood water to give the equivalent of about 0.0313 to 0.500 kg/ha of active ingredient. The treated containers are placed on greenhouse benches and cared for in accordance with conventional greenhouse procedures. Three to four weeks after treatment, the test is terminated and each container is examined and herbicidal effect rated according to the rating system provided in Example 185. The compounds evaluated are reported by compound number given in Example 185.

MOOVA Monochoria [5] = assay: as above; assay type: in vivo, Monochoria vaginalis; design: scale not given here
Protocol: as §3

Galium, Galium aparine = assay: Postemergence herbicidal evaluation, GALAP; assay type: in vivo
In short: as §2

[6] = test system: SAGPY Arrowhead (Pygmaea); assay: Postemergence weed control, flooded paddy (Table IV); assay type: in vivo, Sagittaria pygmaea; design: scale not given here
In short: as §1

[7] = test system: Rice, Tebonnet, Oryza sativa; assay: Preemergence herbicidal evaluation, ORYSAT; assay type: in vivo, (L.) Tebonnet; conditions: 0.2500 kg/ha
In short: (§4)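 Sow seeds in soil-filled cups; spray aqueous acetone compound solution at about 0.0156–0.500 kg/ha; keep on greenhouse benches with routine watering; after four to five weeks, rate visual injury 0–9 compared with control plants.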

[8] = test system: Morningglory Spp., Ipomoea Spp.; assay: Postemergence herbicidal evaluation, IPOSS; assay type: in vivo; conditions: 0.2500 kg/ha
Protocol: In the tests, seedling plants are grown in jiffy flats for about two weeks. The test compounds are dispersed in 50/50 acetone/water mixtures containing 0.5% TWEEN®20, a polyoxyethylene sorbitan monolaurate surfactant of Atlas Chemical Industries, in sufficient quantities to provide the equivalent of about 0.0157 kg to 0.500 kg per hectare of active compound when applied to the plants through a spray nozzle operating at 40 psi for a predetermined time. After spraying, the plants are placed on greenhouse benches and are cared for in accordance with conventional greenhouse procedures. From four to five weeks after treatment, the seedling plants are examined and rated according to the rating system set forth below. Where more than one test is involved for a given compound, the data are averaged.
Results of herbicide evaluation are expressed on a rating scale (0-9). The scale is based upon a visual observation of plant stand, vigor, malformation, size, chlorosis and overall plant appearance as compared with a control.

MOOVA Monochoria [9] = assay: Postemergence weed control, flooded paddy (Table IV); assay type: in vivo, Monochoria vaginalis; design: scale not given here
In short: as §1

ORYSAT Rice, Tebonnet [10] = assay: Rice tolerance, flooded paddy (Table IV); assay type: in vivo, Oryza sativa; design: scale not given here; conditions: crop tolerance
In short: as §1

[11] = test system: Wheat, Winter, cv Riband, Triticum aestivum; assay: Preemergence herbicidal evaluation, TRZAWR; assay type: in vivo; conditions: 0.2500 kg/ha
In short: as §4

[12] = test system: Ragweed, Common, Ambrosia artemisifolia; assay: Preemergence herbicidal evaluation, AMBEL; assay type: in vivo, L.; conditions: 0.2500 kg/ha
In short: as §4

[13] = test system: Sicklepod, Cassia obtusifolia; assay: Postemergence herbicidal evaluation, CASOB; assay type: in vivo, L.
In short: as §2

CYPSE Flatsedge [14] = assay: Postemergence weed control, flooded paddy (Table IV); assay type: in vivo, Cyperus serotinus; design: scale not given here
In short: as §1

COC(=O)COc1ccc(C)cc1-c1nsc2ccc(-n3c(=O)cc(C(F)(F)F)n(C)c3=O)cc12 [Compound 2, Methyl {{2-{5-[3,6-dihydro-3-methyl-4-(trifluoromethyl) -2,6-dioxo-1(2H)-pyrimidinyl]-1,2-benzisothiazol-3-yl]-p-tolyl}oxy}acetate]
herbicidal effect rating (CYPIR Rice Flatsedge; 0.1250 kg/ha): 9.0 | herbicidal effect rating (CYPIR Rice Flatsedge; 0.2500 kg/ha): 9.0 | herbicidal effect rating (CYPIR Rice Flatsedge; 0.5000 kg/ha): 9.0 | herbicide rating (0-9) ([1]; 0.0630 kg/ha): 9.0 | herbicide rating (0-9) ([1]; 0.2500 kg/ha): 9.0 | herbicide rating (0-9) ([2]; 0.0630 kg/ha): 9.0 | herbicide rating (0-9) ([2]; 0.2500 kg/ha): 9.0 | herbicidal effect rating (ORYSAT Rice, Tebonnet [3]; 0.0313 kg/ha): 2.0 | herbicidal effect rating (ORYSAT Rice, Tebonnet [3]; 0.0625 kg/ha): 3.0 | herbicidal effect rating (ORYSAT Rice, Tebonnet [3]; 0.1250 kg/ha): 3.0 | herbicidal effect rating (ORYSAT Rice, Tebonnet [3]; 0.2500 kg/ha): 5.0 | herbicidal effect rating (ORYSAT Rice, Tebonnet [3]; 0.5000 kg/ha): 9.0 | herbicidal effect rating (CYPSE Flatsedge [4]; 0.0313 kg/ha): 0.0 | herbicidal effect rating (CYPSE Flatsedge [4]; 0.0625 kg/ha): 0.0 | herbicidal effect rating (CYPSE Flatsedge [4]; 0.1250 kg/ha): 0.0 | herbicidal effect rating (CYPSE Flatsedge [4]; 0.2500 kg/ha): 0.0 | herbicidal effect rating (CYPSE Flatsedge [4]; 0.5000 kg/ha): 0.0 | herbicidal effect rating (MOOVA Monochoria [5]; 0.0313 kg/ha): 7.0 | herbicidal effect rating (MOOVA Monochoria [5]; 0.0625 kg/ha): 9.0 | herbicidal effect rating (MOOVA Monochoria [5]; 0.1250 kg/ha): 9.0 | herbicidal effect rating (MOOVA Monochoria [5]; 0.2500 kg/ha): 9.0 | herbicidal effect rating (MOOVA Monochoria [5]; 0.5000 kg/ha): 9.0 | herbicide rating (0-9) (Galium, Galium aparine; 0.0630 kg/ha): 9.0 | herbicide rating (0-9) (Galium, Galium aparine; 0.2500 kg/ha): 9.0 | herbicidal effect rating ([6]; 0.1250 kg/ha): 0.0 | herbicidal effect rating ([6]; 0.2500 kg/ha): 2.0 | herbicidal effect rating ([6]; 0.5000 kg/ha): 4.0 | herbicide rating (0-9) [7]: 7.7 | herbicide rating (0-9) [8]: 9.0 | herbicidal effect rating (MOOVA Monochoria [9]; 0.1250 kg/ha): 9.0 | herbicidal effect rating (MOOVA Monochoria [9]; 0.2500 kg/ha): 9.0 | herbicidal effect rating (MOOVA Monochoria [9]; 0.5000 kg/ha): 9.0 | herbicidal effect rating (ORYSAT Rice, Tebonnet [10]; 0.1250 kg/ha): 3.0 | herbicidal effect rating (ORYSAT Rice, Tebonnet [10]; 0.2500 kg/ha): 7.0 | herbicidal effect rating (ORYSAT Rice, Tebonnet [10]; 0.5000 kg/ha): 8.0 | herbicide rating (0-9) [11]: 4.0 | herbicide rating (0-9) [12]: 9.0 | herbicide rating (0-9) ([13]; 0.0630 kg/ha): 6.5 | herbicide rating (0-9) ([13]; 0.2500 kg/ha): 9.0 | herbicidal effect rating (CYPSE Flatsedge [14]; 0.1250 kg/ha): 0.0 | herbicidal effect rating (CYPSE Flatsedge [14]; 0.2500 kg/ha): 0.0 | herbicidal effect rating (CYPSE Flatsedge [14]; 0.5000 kg/ha): 0.0
